From US7196074B2, “Methods of making, using and pharmaceutical formulations comprising 7α, 11β-dimethyl-17β-hydroxyestra-4, 14-dien-3-one and 17 esters thereof” (The United States of America as represented by the …, priority 2000, dated 2007)

What was measured:
[1] = test system: ventral prostate weight; test: Oral androgenic potency, ventral prostate weight assay in orchidectomized immature rats (gavage daily for seven days); assay type: in vivo, Sprague-Dawley rats; conditions: ventral prostate weight; for oral androgenic activity, times as potent as methyltestosterone: gavage daily for 7 days in 10% ethanol/sesame oil (oily carrier)
Experimental: (§1) Immature (about 21-day-old) Sprague-Dawley rats were orchidectomized under anesthesia, and randomly assignee to groups of ten animals for each dose level of the active undergoing testing. Each active was dissolved in 10% ethanol/sesame oil and administered by gavage (oral) each day for seven days beginning on the date of the orchidectomy. The animals were sacrificed 24 hours after the last dose, and the ventral prostate and seminal vesicles were excised, cleaned of fat and connective tissue, blotted on moist filter paper and weighed to the nearest 0.1 mg. See, e.g., Hershberger, L. et al, Myotrophic Activity of 19-nortestosterone And Other Steroids Determined By Modified Levator And Muscle Method, Proc. Soc. Exptl. Biol. Med 83 175–180 (1953). Regression analysis was performed by conventional methods using a PROPHET data management system. See, e.g., Bliss, C., The Statistics of Bioassay (Academic Press, New York, 1952); Hollister, C., Nucleic Acids Res. 16 1873–75 (1988). Ventral prostate weight was used as the endpoint because it is the sensitive organ to androgenic stimulation.
as §1, with “(oral) or subcutaneous injection” for “(oral)”, “mg.” for “mg. See, e.g., Hershberger, L. et al, Myotrophic Activity of 19-nortestosterone And Other Steroids Determined By Modified Levator And Muscle Method, Proc. Soc. Exptl. Biol. Med 83 175–180 (1953).”, “system.” for “system. See, e.g., Bliss, C., The Statistics of Bioassay (Academic Press, New York, 1952); Hollister, C., Nucleic Acids Res. 16 1873–75 (1988).”
Immature (about 21-day-old) Sprague-Dawley rats were orchidectomized under anesthesia, and randomly assignee to groups of ten animals for each dose level of the active undergoing testing. Four dosage forms were prepared. The first two forms constituted a solution of each active in 10% ethanol/sesame oil. The third and fourth dosage forms constituted a suspension of each active in an aqueous carrier (as described in Example 2, supra). These dosage forms were then administered by gavage (oral) to separate animal groups each day for seven days beginning on the date of the orchidectomy. Each carrier was also administered (alone) to separate groups of animals as a control. The animals were sacrificed 24 hours after the last dose, and the ventral prostate and seminal vesicles were excised, cleaned of fat and connective tissue, blotted on moist filter paper and weighed to the nearest 0.1 mg. See, e.g., Hershberger, L. et al, Myotrophic Activity of 19-nortestosterone And Other Steroids Determined By Modified Levator And Muscle Method, Proc. Soc. Exptl. Biol. Med. 83 175–180 (1953). Regression analysis was performed by conventional methods using a PROPHET data management system. See, e.g., Bliss, C., The Statistics of Bioassay (Academic Press, New York, 1952); Hollister, C., Nucleic Acids Res. 16 1873–75 (1988). Ventral prostate weight was used as the endpoint because it is the sensitive organ to androgenic stimulation.
Immature (about 21 day old) Sprague male rats were orchidectomized under anesthesia, and randomly assignee to groups often animals for each dose level of the active undergoing testing. Animals were maintained under standard conditions of housing and had free access to food and water. Illumination was controlled for 14 hour periods of light and 10 hours of darkness. Each active was dissolved in 10% ethanol/sesame oil and administered by gavage (oral) each day for seven days beginning on the date of the orchidectomy. […]

[2] = Serum levels of the free alcohol after single subcutaneous injection of ester; assay type: in vivo, Sprague-Dawley rats; conditions: single subcutaneous 0.6 mg suspended in aqueous carrier; 10 week observation period, FIG. 10
Experimental: Immature (about 21-day-old) Sprague-Dawley rats were orchidectomized under anesthesia, and randomly assignee to groups of 40 or more. Animals received a single subcutaneous injection of 0.6 mg of each ester in 0.2 ml of an aqueous suspending carrier and/or oily carrier (10% ethanol/90% sesame oil or ethyl oleate) on the date of the orchidectomy. In cases where the ester was not solid at room temperature, 10% ethanol/sesame oil or ethyl oleate was used as the carrier. In this example, the carrier used to provide the aqueous suspension was formulated as follows: 1 g benzyl alcohol, 0.5 g sodium carboxylethyl cellulose 50, 0.376 g disodium hydrogen phosphate dihydrate, 1.495 g sodium dihydrogen phosphate dihydrate, with water for injection (WFI) being added to bring volume of the carrier up to 100 ml.

[3] = gavage daily for 7 days in 10% ethanol/sesame oil

Row | SMILES | oral androgenic activity, times as potent as methyltestosterone [1] [times] | oral androgenic activity, times as potent as testosterone bucyclate (1781 V-1) [1, 3] | oral androgenic activity, times as potent as the free alcohol (1321 D) [1, 3] | oral androgenic activity, times more potent than testosterone (111-C) [1, 3] | oral androgenic activity, times more potent than testosterone enanthate (112a) [1, 3] | serum levels of the free alcohol (7α,11β-dimethyl-19-nortestosterone) [2] | oral androgenic potency relative to methyltestosterone in the same aqueous carrier ([1]; gavage daily for 7 days, suspension in aqueous carrier) [times]
1 | CCCC[C@H]1CC[C@H](C(=O)O[C@H]2CC[C@H]3[C@H]4[C@H]([C@@H](C)C[C@]23C)[C@H]2CCC(=O)C=C2C[C@H]4C)CC1 (relative stereo) [Compound I, 7α,11β-Dimethyl-17β-hydroxy-4-estren-3-one 17β-trans-4-n-butylcyclohexane carboxylate] | 3.77 | at least 4 times | at least 4 times | 10–100 times | 10–100 times | highest levels of the free alcohol | –
2 | CCCCCCCCCCC(=O)O[C@H]1CC[C@H]2[C@H]3[C@H]([C@@H](C)C[C@]12C)[C@H]1CCC(=O)C=C1C[C@H]3C [Compound II, 7α,11β-dimethyl-17β-hydroxyestr-4-en-3-one 17-undecanoate] | 2.36 | – | – | – | – | – | 0.95
